# Peptide text beside a SMILES is read from it. * marks the point of attachment. Cbz = O=C(OCc1ccccc1)*
# Assays:
# Purified cathepsin L = molecular target: T1, Purified cathepsin L (Homo sapiens, UniProt P07711); assay: Cathepsin L activity, fluorogenic substrate (CV-Cathepsin L Detection Kit); assay type: biochemical; details: inhibitor 10 μM, 200 ng cathepsin L; positive control 4e+5 AU, negative control 0.75e+5 AU
# T1 construct: purchased Biomol, Plymouth Meeting, Pa
# Protocol: Cathepsin L activity was measured using a commercially available kit according to the manufacturer's procedure (CV-Cathepsin L Detection Kit; Biomol, Plymouth Meeting, Pa.). Purified cathepsin L (Biomol, Plymouth Meeting, Pa.) (200 ng) was incubated with each inhibitor (10 μM) in a 96 well plate for 15 min at room temperature in 100 μl of reaction buffer (100 mM sodium acetate pH 5, 1 mM EDTA (ethylenediaminetetraacetic acid), and 4 mM dithiothreitol). The protease inhibitors tested were: lactacystin and inhibitors of cathepsin L, B, S, and K. 100 μl of a fluorogenic substrate (CV-Cathepsin L Detection Kit; Biomol, Plymouth Meeting, Pa.) were added and incubated for an additional 30 min at room temperature. Fluorescence was measured in a plate reader (Victor Multilabel Counter, Perkin Elmer) at 380 nm excitation and […] emission wavelengths.
# [1] = test system: Drug-sensitive cells SKN-SH; assay: Prevention of development of doxorubicin resistance, viable cell count, SKN-SH; assay type: cell-based, human; details: Dox 10^−9 M + inhibitor 10 μM
# Description: (§1) As discussed above, inhibition of cathepsin L enhanced drug response only in drug-resistant cells. Another aspect of the present invention was to determine whether treatment of drug-sensitive cancer cells with this drug combination prevents them from becoming drug resistant. […] After 4 days in culture, the surviving cells were subjected to the same treatment for an additional four days. The cells were then subjected to two subsequent treatments for four days with 2.5×10^−8 M doxorubicin with or without the cathepsin L inhibitor at 10 μM. The surviving cells were then treated with doxorubicin 5×10^−8 M doxorubicin with or without cathepsin L (10 μM) for four days. At the end of each incubation period, viable cells were counted.
# [2] = test system: Drug-sensitive cells Saos2; assay: Prevention of development of doxorubicin resistance, viable cell count, Saos2; assay type: cell-based; details: Dox 10^−9 M + inhibitor 10 μM
# Description: as §1
# [3] = test system: SKN-SH doxorubicin-resistant cells; assay: Viable cell count of SKN-SH doxorubicin-resistant cells with other chemotherapeutic agents; details: Homo sapiens, SK-N-SH, 72 h; for viability at 100 µM: read-out: number of viable cells, chemotherapeutic agent alone at 10^−4 M; for viability at 10 µM: read-out: number of viable cells, chemotherapeutic agent alone at 10^−5M; for viability at 1 µM: read-out: number of viable cells, chemotherapeutic agent alone at 10^−6 M; for viability at 0.1 µM: read-out: number of viable cells, chemotherapeutic agent alone at 10^−7M; for viability at 0.01 µM: read-out: number of viable cells, chemotherapeutic agent alone at 10^−8M
# Protocol: SHN-SH cells were prepared in the manner described above. […] Viable cells were counted after 72 hours of incubation with the melphalan, etoposide, mitoxantrone, cyclophosphamide, and tamoxifen.
# [4] = test system: Doxorubicin resistant human neuroblastoma cells (SKN-SH/R); assay: Tumor growth of SKN-SH/R cells injected into nude mice; assay type: in vivo
# Protocol: Doxorubicin resistant human neuroblastoma cells (SKN-SH/R) cells grown into 75 cm^2 flasks were harvested by trypsinization and centrifuged to remove trypsin. The pellet was then reconstituted in culture medium at 10^7 cell/ml. On day one, 100 μl (10^6 cells) were injected to the right flank of nude mice (5 per group) and after the tumor became palpable at day 11, mice were assigned to four groups: 1) controls (treated with the vehicle DMSO), 2) Dox. 1.5 mg/kg (treated with doxorubicin alone 1.5 mg/Kg), 3) iCL 30 mg/Kg (treated with cathepsin L inhibitor alone at 30 mg/Kg), and 4) Dox 1.5 mg/Kg+iCL 30 mg/Kg (treated with the combination of doxorubicin 1.5 mg/Kg and cathepsin L inhibitor 30 mg/Kg). Intraperetoneal injections were given on day 11, day 14, and day 17.
# SKN-SH wild type cells = assay: MTT cytotoxicity assay, SKN-SH wild type cells; assay type: cell-based; details: Homo sapiens, SK-N-SH, 96 h, read-out: IC50 of the cytotoxic agent alone
# Protocol: (§2) Human neuroblastoma SKN-SH cells (ATCC Cat. No. HTB-11) were cultured in Dulbecco's Modified Eagles Medium (DMEM; Gibco, Grand Island, N.Y.) supplemented with 10% fetal bovine serum (FBS; Sigma-Aldrich, St. Louis, Mo.) at 37° C. in a 95% Air/5% CO2 atmosphere. Resistant cells to doxorubicin (SKN-SH/R) were selected by stepwise exposure to drug concentrations ranging from 10^−9 M through 10^−6 M over a time period of three months. The resulting cell line was subjected to treatment with the doxorubicin alone or in combination with: proteosome inhibitor (Lactacystin), cathepsin B inhibitor (L-3-trans-(Propylcarbamoyl)oxirane-2-carbonyl]-L-isoleucyl-L praline), cathespin L inhibitor (Z-Phe-Tyr(t-Bu)-diazomethylketone), cathespin K inhibitor (1,3-Bis(N-CBZ-Leu-NH)-2-propanonel,3 -Di(N-carbonbenzoyloxy-L-leucyl)amino acetone), or cathespin S inhibitor (Z-Phe-Leu-COCHO.H2O), (all available from Calbiochem-Novabiochem, San Diego) at 10 μM each to determine whether they affect cell response to doxorubicin.
# (§3) Cytotoxic activity of doxorubicin and cysteine protease inhibitors were quantitatively determined by a calorimetric assay utilizing 3-(4,5-dimethyl-2-thiazolyl) 2,5-diphenyl tetrazolium bromide (MTT; Sigma-Aldrich, St. Louis, Mo.). […] The optical density of this solution was measured at 570 nm and the percentage of viable cells estimated by comparison with untreated control cells. […]
# SKN-SH/R cells = assay: MTT cytotoxicity assay, doxorubicin-resistant neuroblastoma cells; assay type: cell-based; details: Homo sapiens, SK-N-SH, 96 h, read-out: IC50 (concentration at which 50% of cells remained viable) of the cytotoxic agent alone, SKN-SH/R cells, agent alone (control cells), 96 hours, MTT
# Protocol: as §2, §3
# cathepsin L = assay: Cathepsin L expression by Western blot in siRNA-transfected Saos2-R cells; assay type: cell-based, human
# Description: The human cathepsin L siRNA was designed in our laboratory by studying a cDNA sequence of the human cathepsin L gene (SEQ ID NO: 2). We selected a segment defined by nucleotide numbers 91-111, sent that sequence to a contract laboratory (Dharmacon, Lafayette, Colo.), which synthesized an siRNA molecule based on the aforementioned segment. The segment of the human cathepsin L cDNA we used was: […] (91-111) (SEQ ID NO: 2). On the day before transfection, 3×10^5 drug resistant osteosarcoma cells (Saos2-R) were seeded in 6-well plates and grown in 2.5 ml of DMEM supplemented with 10% FBS. After 24 hours in culture, 25 μl of 20 μM stock solution of siRNA duplexes were transfected into cells with GeneSilencer™ SiRNA Transfection Reagent Kit (Gene Therapy Systems, Inc., San Diego, Calif.). Briefly, adherent cells were transfected in 6 well plates. Cells were about 70% confluent. In one tube, 5 μl of GeneSilencer™ was mixed with 25 μl of serum free medium. In a second tube, 25 μl of siRNA diluent was mixed with […] of serum free medium and 20 μl of siRNA (100 nM). After incubation of tubes 1 and 2, at room temperature for 5 min, they were mixed together into tube 3 and incubated for an additional 5 min. […] The cells were counted and protein lysates were used to detect cathepsin L expression by Western blot as described above.
# [5] = test system: drug resistant osteosarcoma cells (Saos2-R); assay: Cell count of drug resistant osteosarcoma cells after siRNA or inhibitor and doxorubicin; assay type: cell-based
# Description: The human cathepsin L siRNA was designed in our laboratory by studying a cDNA sequence of the human cathepsin L gene (SEQ ID NO: 2). We selected a segment defined by nucleotide numbers 91-111, sent that sequence to a contract laboratory (Dharmacon, Lafayette, Colo.), which synthesized an siRNA molecule based on the aforementioned segment. The segment of the human cathepsin L cDNA we used was: […] (91-111) (SEQ ID NO: 2). On the day before transfection, 3×10^5 drug resistant osteosarcoma cells (Saos2-R) were seeded in 6-well plates and grown in 2.5 ml of DMEM supplemented with 10% FBS. After 24 hours in culture, 25 μl of 20 μM stock solution of siRNA duplexes were transfected into cells with GeneSilencer™ SiRNA Transfection Reagent Kit (Gene Therapy Systems, Inc., San Diego, Calif.). Briefly, adherent cells were transfected in 6 well plates. Cells were about 70% confluent. In one tube, 5 μl of GeneSilencer™ was mixed with 25 μl of serum free medium. In a second tube, 25 μl of siRNA diluent was mixed with […] of serum free medium and 20 μl of siRNA (100 nM). After incubation of tubes 1 and 2, at room temperature for 5 min, they were mixed together into tube 3 and incubated for an additional 5 min. The content of tube 3 was added to the cells in the 6 well plates and incubated for 2 days before the addition of the drug. After 48 hours of incubation, doxorubicin (10^−5 M) was added and maintained in culture for an additional 48 hours before analysis. The cells were counted and protein lysates were used to detect cathepsin L expression by Western blot as described above.
# [6] = cathepsin inhibitor 30 mg/Kg + doxorubicin 1.5 mg/Kg
# T1 sequence (P07711 114-333, species assumed): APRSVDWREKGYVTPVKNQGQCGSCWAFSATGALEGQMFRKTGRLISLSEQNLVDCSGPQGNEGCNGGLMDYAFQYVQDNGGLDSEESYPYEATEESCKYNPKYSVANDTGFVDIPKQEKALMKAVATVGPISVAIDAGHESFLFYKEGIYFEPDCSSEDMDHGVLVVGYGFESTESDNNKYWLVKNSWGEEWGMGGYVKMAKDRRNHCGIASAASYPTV
compound,measurement,setting,value
CCCNC(=O)[C@H]1O[C@@H]1C(=O)N[C@H](C(=O)N1CCC[C@H]1C(=O)O)[C@@H](C)CC (relative stereo) [cathepsin B inhibitor],cathepsin L activity (arbitrary units) in presence of inhibitor,Purified cathepsin L,3.5e+5 AU
"CC(C)C[C@H](NC(=O)OCc1ccccc1)C(=O)NCC(=O)CNC(=O)[C@H](CC(C)C)NC(=O)OCc1ccccc1 [cathepsin K inhibitor, 1,3-Bis(N-CBZ-Leu-NH)-2-propanonel,3 -Di(N-carbonbenzoyloxy-L-leucyl)amino acetone]",cathepsin L activity (arbitrary units) in presence of inhibitor,Purified cathepsin L,1e+5 AU
"CC[C@H](C)[C@H](NS(=O)(=O)c1ccc2ccccc2c1)C(=O)N[C@H](C=O)Cc1c[nH]c2ccccc12 [cathepsin L inhibitor (Napsule-Ile-Tryp), Napsule-Ile-Tryp]","viable cells, doxorubicin plus cathepsin L inhibitor, first concentration",[1],about 80%
same,"viable cells, doxorubicin plus cathepsin L inhibition, first concentration",[2],about 90%
"CC(C)CC(NC(=O)C(Cc1ccccc1)NC(=O)OCc1ccccc1)C(=O)C=O.O (stereo not drawn) [cathepsin S inhibitor, Z-Phe-Leu-COCHO.H2O]",cathepsin L activity (arbitrary units) in presence of inhibitor,Purified cathepsin L,3e+5 AU
O=P1(N(CCCl)CCCl)NCCCO1 (stereo not shown) [cyclophosphamide],viability at 100 µM,[3],~70%
same,viability at 10 µM,[3],~70%
same,viability at 1 µM,[3],~80%
same,viability at 0.1 µM,[3],~95%
COc1cc([C@@H]2c3cc4c(cc3[C@@H](O[C@@H]3O[C@@H]5CO[C@@H](C)O[C@H]5[C@H](O)[C@H]3O)[C@H]3COC(=O)[C@H]23)OCO4)cc(OC)c1O [etoposide],viability at 100 µM,[3],~10%
same,viability at 10 µM,[3],~70%
same,viability at 1 µM,[3],~90%
same,viability at 0.1 µM,[3],~95%
"O=C[C@H](Cc1ccc(O)cc1)NC(=O)[C@H](Cc1ccccc1)NC(=O)OCc1ccccc1 [iCL, Z-Phe-Tyr-aldehyde] (Cbz-Phe-Tyr-aldehyde)","tumor volume reduction at day 27 greater than doxorubicin alone, co-administered with doxorubicin",[4]; [6],about 94%
same,"tumor volume reduction at day 27 greater than the control, co-administered with doxorubicin",[4]; [6],about 95%
same,"tumor volume reduction at day 27 greater than the control, inhibitor alone",[4]; cathepsin inhibitor alone 30 mg/Kg,about 60%
same,"tumor volume reduction at day 27 greater than doxorubicin, inhibitor alone",[4]; cathepsin inhibitor alone 30 mg/Kg vs doxorubicin 1.5 mg/Kg,about 50%
same,"average tumor volume on day 27, combination with doxorubicin","[4]; nude mice, i.p. on day 11, 14, 17, Dox 1.5 mg/Kg+iCL 30 mg/Kg",approximately 100 mm^3
same,"average tumor volume on day 27, single agent","[4]; nude mice, i.p. on day 11, 14, 17, doxorubicin alone 1.5 mg/Kg or iCL alone 30 mg/Kg",approximately 800 mm^3
"CC(=O)N[C@@H](CSC(=O)[C@]1([C@@H](O)C(C)C)NC(=O)[C@H](C)[C@@H]1O)C(=O)O [lactacystin, Lactacystin]",cathepsin L activity (arbitrary units) in presence of inhibitor,Purified cathepsin L,4.25e+5 AU
N[C@@H](Cc1ccc(N(CCCl)CCCl)cc1)C(=O)O [melphalan],viability at 1 µM,[3],~0%
same,viability at 0.1 µM,[3],~30%
same,viability at 0.01 µM,[3],~60%
O=C1c2c(O)ccc(O)c2C(=O)c2c(NCCNCCO)ccc(NCCNCCO)c21 [mitoxantrone],viability at 1 µM,[3],~5%
same,viability at 0.1 µM,[3],~10%
same,viability at 0.01 µM,[3],~40%
CC/C(=C(\c1ccccc1)c1ccc(OCCN(C)C)cc1)c1ccccc1 [tamoxifen],viability at 10 µM,[3],~0%
same,viability at 1 µM,[3],~60%
same,viability at 0.1 µM,[3],~60%
same,viability at 0.01 µM,[3],~75%
CC[C@]1(O)C[C@@H]2CN(CCc3c([nH]c4ccccc34)[C@@](C(=O)OC)(c3cc4c(cc3OC)N(C)[C@H]3[C@@](O)(C(=O)OC)[C@H](OC(C)=O)[C@]5(CC)C=CCN6CC[C@]43[C@@H]65)C2)C1 [vinblastine],IC50,SKN-SH wild type cells,~100 nM
same,IC50,SKN-SH/R cells,~5620 nM
"siRNA: human cathepsin L siRNA based on nucleotides 91-111 of the cathepsin L cDNA (SEQ ID NO: 2), synthesized by Dharmacon (UUCACCUUCCGCUACGUGUUG; listed as RNA, chemistry not given here; listed as Homo sapiens)","cathepsin L expression (Western blot), siRNA alone",cathepsin L; Saos2-R cells transfected with siRNA,completely diminished
same,"cathepsin L expression (Western blot), siRNA and doxorubicin",cathepsin L; Saos2-R cells transfected with siRNA and treated with doxorubicin 10^−5 M,completely diminished
same,"inhibition of cell proliferation, combination of siRNA and doxorubicin",[5]; doxorubicin 10^−5 M,~90%
same,"cell number, in combination with doxorubicin","[5]; doxorubicin 10^−5 M for 48 hours, untreated 1.6e+6 AU",1.5e+5 AU
same,"cell number, siRNA transfection alone",[5]; untreated 1.6e+6 AU,8.0e+5 AU

# From patent publication US20090312277A1, “Compositions And Methods For Reversing Or Preventing Resistance Of A Cancer Cell To A Cytotoxic Agent” (priority 2004, published 2009)
